Assay results from patent US12064445B2, “Cytarabine conjugates for cancer therapy” (Biosight Ltd., priority 2015, dated 2024).
pIC50: −log10 of the molar value.

Tests used:
[1] = tested on: A2780 (Human ovarian carcinoma); test: MTT assay, IC50 in tumor cell lines; type: cell-based; settings: A2780, 72 hr
Protocol: (§1) The effect of Astarabine® on different cell lines was evaluated. Briefly, various cell lines were obtained from ATCC or ECACC. Hematological cells were grown in RPMI medium containing 10-20% FBS and 1% glutamine. Solid tumor cells were grown in DMEM medium containing 10-20% FBS and 1% glutamine. Cells were seeded into 96-well plates, 50,000 cells/ml, 0.2 ml per well. Test substances were diluted in saline or PBS and added in final concentrations of 0.1 nM to 10 μM, in a volume of 20 μl. The study was conducted in triplicates, PBS was used as control. Plates were incubated for 72 hr at 37° C., 5% CO2. At the end of the exposure period, a MTT assay using the MTT reagent [3-(4,5-dimethylthiazol-2-yl)-2,5-diphenyltetrazolium bromide] was performed. MTT was added to each well at a concentration of 5 mg/ml in a volume of 0.02 ml. Plates were incubated at 37° C. for 3 h. The plates were centrifuged at 3500 rpm for 5 minutes and the supernatant was aspired. The pellets which contained MTT crystals were each dissolved in 0.2 ml DMSO. Absorbance was determined using ELISA reader at a wavelength of 570 nm.

[2] = tested on: CCRF-CEM (Human acute lymphoblastic leukemia T lympoblastoid line); test: MTT assay, IC50 in tumor cell lines; type: cell-based; settings: 72 hr
Protocol: as §1

[3] = tested on: CCRF-SB (Human acute lymphoblastic leukemia); test: MTT assay, IC50 in tumor cell lines; type: cell-based; settings: 72 hr
Protocol: as §1

[4] = tested on: HL-60 (Human promyelocytic leukemia); test: MTT assay, IC50 in tumor cell lines; type: cell-based; settings: HL-60, 72 hr
Protocol: as §1

[5] = tested on: HepG2 (Human hepatocellular carcinoma); test: MTT assay, IC50 in tumor cell lines; type: cell-based; settings: HepG2, 72 hr
Protocol: as §1

[6] = tested on: Kasumi-1 (Human acute myeloblastic leukemia); test: MTT assay, IC50 in tumor cell lines; type: cell-based; settings: Kasumi-1, 72 hr
Protocol: as §1

[7] = tested on: L1210 (Mouse DBA/2 lymphocytic leukemia); test: MTT assay, IC50 in tumor cell lines; type: cell-based; settings: L1210, 72 hr
Protocol: as §1

[8] = tested on: MEG 01 (Human chronic myelogenous leukemia); test: MTT assay, IC50 in tumor cell lines; type: cell-based; settings: MEG 01, 72 hr
Protocol: as §1

[9] = tested on: Molt-4 (Human acute lymphoblastic leukemia); test: MTT assay, IC50 in tumor cell lines; type: cell-based; settings: Molt-4, 72 hr
Protocol: as §1

[10] = tested on: P388.D1 (Mouse lymphoid macrophage); test: MTT assay, IC50 in tumor cell lines; type: cell-based; settings: P388D1, P388.D1, 72 hr
Protocol: as §1

[11] = tested on: RS 4:11 (Human acute lymphoblastic leukemia); test: MTT assay, IC50 in tumor cell lines; type: cell-based; settings: RS4-11, RS 4:11, 72 hr
Protocol: as §1

[12] = tested on: SU DHL-1 (Human large cell lymphoma); test: MTT assay, IC50 in tumor cell lines; type: cell-based; settings: SU DHL-1, 72 hr
Protocol: as §1

[13] = tested on: SU DHL-5 (Human B-cell non Hodgkin's lymphoma); test: MTT assay, IC50 in tumor cell lines; type: cell-based; settings: SU DHL-5, 72 hr
Protocol: as §1

[14] = tested on: THP-1 (Human monocytic leukemia); test: MTT assay, IC50 in tumor cell lines; type: cell-based; settings: THP-1, 72 hr
Protocol: as §1

in vivo = settings: IRC, mouse
Protocol: IRC mice were injected with Astarabine® IV daily for 14 days in a dosage ranging from 400 mg/kg/day to 1200 mg/kg/day. Based on the results of this 14 days intravenous repeated dose study in mice, it was concluded that the IV maximal tolerated dose for Astarabine® is 400 mg/kg/day, administrated for 14 consecutive days. The total administered dose in this group was 5600 mg/kg. All measured parameters such as clinical observations, neurobehavioral observations, motor activity observations, body weight, food consumption, blood analysis and urine analysis, were within the normal range as compared to the non-treated group. Thus, Astarabine® in a concentration of 400 mg/kg/day was considered as the NOAEL (No Adverse Effect Level) in mice. In vivo tolerability/toxicology studies to determine the MTD of a single dose in mice are shown in FIG. 1A and of repeated doses in mice are shown in FIG. 1B.

AML and ALL patients = test: Phase I/IIa open-label clinical study in AML and ALL patients; type: in vivo, human
Protocol: Phase I/IIa, open-label, uncontrolled, single-center study enrolled patients of 18 or more years of age with relapsed or refractory acute leukemia or those unfit for intensive therapy, as judged by the treating physician. The study was approved by the Rambam IRB (approval #0384-11).
Patients were enrolled into 4 Astarabine® escalating dose cohorts, each included 3 patients. Treatment was administered as a 1-hour single daily infusion for 6 consecutive days.
Astarabine® doses for each infusion: • For age ≤50 years: 0.5 g/m^2, 1.5 g/m^2, 3 g/m^2, 4.5 g/m^2 • For age >50 years: 0.3 g/m^2, 0.8 g/m^2, 1.5 g/m^2, 2.3 g/m^2 Results

[15] = patient 1, Refractory AML, 0.3 gr/m^2/day
[16] = patient 2, Refractory AML, 0.3 gr/m^2/day
[17] = patient 3, Refractory AML, 0.5 gr/m^2/day
[18] = patient 4, Secondary AML, 0.8 gr/m^2/day
[19] = patient 5, Secondary AML, 0.8 gr/m^2/day
[20] = patient 6, Refractory AML, 0.8 gr/m^2/day
[21] = patient 8, Secondary AML, 1.5 gr/m^2/day
[22] = patient 9, Secondary AML, 1.5 gr/m^2/day
[23] = patient 10, Relapsed AML, 2.3 gr/m^2/day

With N[C@@H](CC(=O)Nc1ccn([C@@H]2O[C@H](CO)[C@@H](O)[C@@H]2O)c(=O)n1)C(=O)O [Astarabine®] the pIC50 [1] was 6.34, the pIC50 [2] was 7.39 to 7.63 and the pIC50 [3] was 4.67 to 4.96. The pIC50 [4] was 6.56 to 6.59, the pIC50 [5] was 5.12 to 5.15 and the pIC50 [6] was 5.12. It also gave a pIC50 [7] of 6.93 to 7.40, a pIC50 [8] of 5.77 and a pIC50 [9] of 7.62 to 8.40. It also gave a pIC50 [10] of 5.59 to 5.72, a pIC50 [11] of 7.57 and a pIC50 [12] of 6.47 to 6.50. For the same compound, the pIC50 [13] was 6.71, the pIC50 [14] was 4.28 to 5.15 and the “IV maximal tolerated dose” value (in vivo; 14 days) was 400 mg/kg/day. For the same compound, the NOAEL at 14 days (in vivo; iv) was 400 mg/kg/day, the MTD at 14 days (in vivo; iv, 400 mg/kg/day) was 5600 mg/kg and the “Adverse effects during or post therapy” value (AML and ALL patients; 10 patients, 0.3-2.3 g/m^2/day, 1-hour daily infusion for 6 days, apart from neutropenic fever) was “No significant adverse effects”. For the same compound, the Safety and tolerability (AML and ALL patients; even for patients of 80 or more years of age) was “safe and very well tolerated”, the Follow-up in months (AML and ALL patients; [15]) was 3 months and the “BM blasts Day 0” value (AML and ALL patients; patient 1, Refractory AML, 0.3 gr/m^2/day x 6 days infusion) was 100%. For the same compound, the “BM blasts Day 14” value (AML and ALL patients; [15]) was 90%, the “BM blasts Day 30” value (AML and ALL patients; [15]) was 83% and the Follow-up in months (AML and ALL patients; [16]) was 2 months. The “BM blasts Day 0” value (AML and ALL patients; [16]) was 100%, the “BM blasts Day 14” value (AML and ALL patients; [16]) was 64% and the “BM blasts Day 30” value (AML and ALL patients; [16]) was 70%. The Follow-up in months (AML and ALL patients; [17]) was 6 months, the “BM blasts Day 0” value (AML and ALL patients; [17]) was 90% and the “BM blasts Day 14” value (AML and ALL patients; [17]) was 37%. For the same compound, the “BM blasts Day 30” value (AML and ALL patients; [17]) was 60%, the Follow-up in months (AML and ALL patients; [18]) was 4 months and the “BM blasts Day 14” value (AML and ALL patients; [18]) was 39%. For the same compound, the “BM blasts Day 30” value (AML and ALL patients; [18]) was 63%, the Follow-up in months (AML and ALL patients; [19]) was 9 months and the “BM blasts Day 0” value (AML and ALL patients; [19]) was 80%. For the same compound, the “BM blasts Day 14” value (AML and ALL patients; [19]) was 5%, the “BM blasts Day 30” value (AML and ALL patients; [19]) was 0% and the Follow-up in months (AML and ALL patients; [20]) was 1 months. For the same compound, the “BM blasts Day 0” value (AML and ALL patients; [20]) was 85%, the “BM blasts Day 14” value (AML and ALL patients; [20]) was 100% and the “BM blasts Day 30” value (AML and ALL patients; [20]) was 100%. The Follow-up in months (AML and ALL patients; patient 7, ALL, 1.5 gr/m^2/day) was 7 months, the “BM blasts Day 0” value (AML and ALL patients; patient 7, ALL, 1.5 gr/m^2/day) was 89% and the “BM blasts Day 14” value (AML and ALL patients; patient 7, ALL, 1.5 gr/m^2/day) was 3%. The “BM blasts Day 30” value (AML and ALL patients; patient 7, ALL, 1.5 gr/m^2/day) was 0.2%, the Follow-up in months (AML and ALL patients; [21]) was 6 months and the “BM blasts Day 0” value (AML and ALL patients; [21]) was 63%. For the same compound, the “BM blasts Day 14” value (AML and ALL patients; [21]) was 80%, the “BM blasts Day 30” value (AML and ALL patients; [21]) was 8% and the Follow-up in months (AML and ALL patients; [22]) was 1 months. For the same compound, the Outcome (AML and ALL patients; [22]) was “Died”, the “BM blasts Day 0” value (AML and ALL patients; [22]) was 100% and the Follow-up in months (AML and ALL patients; [23]) was 1 months. The Outcome (AML and ALL patients; [23]) was “Died”, the “BM blasts Day 0” value (AML and ALL patients; [23]) was 100% and the Remission (AML and ALL patients; patients having acute leukemia, 0.3-2.3 g/m^2/day for 6 days) was “three out of ten patients”. The Safety and tolerability (AML and ALL patients; patients of 75 or more years of age having AML or ALL, daily dose of about 2 g/m^2 or higher) was “safe and well tolerated”.
